How the values were obtained:
[1] = tested on: Individuals at risk for ILD; assay: Oral resveratrol for chemoprevention of ILD in individuals at risk (Example 11); assay type: in vivo, human; conditions: 2 to 5 years
Procedure: Resveratrol is evaluated clinically for efficacy in chemoprevention of ILD in smokers. The study is generally patterned after the COPD chemoprevention study (Example 10) with modifications appropriate to the clinical and histopathologic evaluation of ILD, and the references listed in the preceding examples may be applied as appropriate. Individuals at risk with no disease or mild COPD are treated once or more per day with gelatin capsules containing resveratrol. A population of individuals at risk for a specific ILD, such as silicosis can be studied, or several such populations such as sand blasters (silicosis) and coal miners can be studied in parallel The different populations are subdivided into subpopulations: clinically and histopathologically disease free, clinically asymptomatic with histopathologic inflammation and mildly ILD symptomatic, meaning some fibrosis but no pulmonary impairment causing hypoxemia or acidosis. […] Patients are medically monitored for clinical symptoms of ILD throughout the study, including onset of symptoms and frequency and severity thereof. […] Forced expiratory volume (FEV) and forced inspiratory volume (FIV) are also evaluated to measure airway patency as a direct measure of clinical morbidity and to determine correlation the histopathologic and other indicators of clinical disease. […]

IL-8 release, A549 cells = assay: IL-8 release (ELISA) in IL-1β stimulated A549 cells; assay type: cell-based; conditions: Homo sapiens, 1 ng/ml IL-1β, read-out: EC50 for inhibition of the release of IL-8
Procedure: The human airway epithelial cell line A549 may be employed to study resveratrol inhibition of the release of IL-8 (interleukin 8) and GM-CSF (granulocyte macrophage-colony stimulating factor) by a 1 ng/ml stimulation with IL-1β (interleukin 1β). A549 cells, BEAS-2B cells and 16HBE-16o^− cells were stimulated with 1 ng/ml levels of IL-1β in the presence of resveratrol.
Cells, including the A549 cells, were cultured in Dulbecco's modified Eagle's medium (DMEM) 10% (v/v) fetal calf serum (FCS), 100 μg/ml penicillin and 100 μg/ml streptomycin. IL-8 release was measured by commercially available ELISA kit (R&D Systems).

Patients with asthma = assay: Pulmonary resveratrol clinical evaluation in asthma (Example 4); assay type: in vivo, human; conditions: inhaled, 4, 8 or 20 mg/day, about six months
Procedure: Resveratrol is evaluated clinically for efficacy in treating asthma when administered pulmonarily. The methods of the following references are generally used in the evaluation of asthmatic disease: Wohl et al. (2000) N. Engl. J. Med. 343(15):1113-4; Agertoft et al. (2000) N. Engl. J. Med 343(15):1064-9. Patients with asthma are treated once or more per day with inhalator delivered pulmonary administered doses of resveratrol. Patients are divided randomly and blindly into approximately equal groups that receive either 0 (placebo), 4, 8, or 20 mg/day resveratrol in inhaled doses of 0, 1, 2, or 5 mg administered 4 times daily for about six months. Patients are medically monitored for clinical symptoms of asthma throughout the study, including frequency and severity of acute asthma attacks. […] In addition exhaled nitric oxide (NO) and carbon monoxide (CO) levels may be measured at more frequent intervals, such as every other week. Forced expiratory volume (FEV) and forced inspiratory volume (FIV) are also evaluated to measure airway patency as a direct measure of clinical morbidity and to determine correlation the histopathologic and other indicators of clinical disease, such as exhaled NO Immunhistopathologic examination of lung tissue biopsy samples taken at the same intervals as the blood samples are also examined for histopathologic evidence of extent and histology of inflammation.

[2] = tested on: CRE dependent transcription; assay: CRE luciferase reporter in stably transfected A549 cells; assay type: cell-based, human
Procedure: The expression of inflammatory genes was then evaluated in cells transformed with luciferase reporter genes containing sites for transcription factors (Tf, Tfs). The A549 cells were stably transfected by routine methods with luciferase reporters containing the transcription factors NF-κB, TRE (AP-1, TPA responsive element) and CRE (cAMP responsive element). Luciferase activity of cell lysates resuspended in […] cell lysis buffer mixed (40 mml resuspended lysate: 40 mml assay reagent) was measured using the Luciferase Assay System (Promega), with emitted light measured by a Turner DesignsTD-20/20 luminometer (Steptech Instruments Ltd., Stevenage, U.K.)

[3] = tested on: patients resistant to existing pulmonary steroid therapy; assay: Resveratrol supplementation vs increasing steroid dose in steroid resistant asthma (Example 7); assay type: in vivo, human; conditions: oral or pulmonary resveratrol added to inhaled steroid
Excerpt: Instead of steroid naive chid asthmatic patients (children are chosen because of the increased gravity of systemic endocrine effects for children, but adults can be analogously studied) selected in Example 6, patients reesistant to existing pulmonary steroid therapy are selected. The study is otherwise analogous to the study in […], except that in the first two groups the oral or inhaled resveratrol supplements the inhaled steroid dose being administered prior to the beginning of the evaluation, while the third group has the dosage of inhaled steroid being administered prior to the study doubled. Alternatively the third group can receive oral prednisone in the appropriate systemic dose. The evaluation is otherwise performed identically to that in Example 6.

SMILES: Oc1ccc(/C=C/c2cc(O)cc(O)c2)cc1 [Resveratrol, 3,5,4′-trihydroxystilbene]
- side effects ([1]; oral, relative to those expected from steroid administration): without significant side effects
- efficacy in chemoprevention of ILD ([1]; oral, 200, 2000 or 3000 mg/day): effective for chemoprevention of ILD
- EC50 (IL-8 release, A549 cells): 72 ± 11 µM
- efficacy in treating asthma (Patients with asthma): effective for treating asthma
- extent of inhibition of CRE dependent transcription [2]: 91%
- EC50 ([2]; Homo sapiens, read-out: EC50 for inhibition of CRE dependent transcription): 30 ± 17 µM
- systemic side effects compared with doubling steroid dosage [3]: reduced systemic side effects compared with doubling steroid dosage
- efficacy as supplement to existing steroid therapy vs doubling inhaled steroid dose ([3]; steroid resistant asthma): as or more effective as supplements to existing steroid therapy for antiinflammatory treatment than doubling inhaled steroid dose

— patent US6878751B1, “Administration of resveratrol to treat inflammatory respiratory disorders” (Imperial College of Science Technology and Medicine, priority 2000, dated 2005)
